Source: article PMC9841523 (Journal of Medicinal Chemistry, 2022)

Assays:
PKR = molecular target: T1, PKR (Homo sapiens, UniProt P19525); assay: KiNativ kinase panel; assay type: cell-based; conditions: 1 μM, MCF-7 Cells
T1 construct: MCF7 cells were exposed to; endogenous in cells; host or cells: MCF7

MST3 = molecular target: T2, MST3 (Homo sapiens, UniProt Q9Y6E0); assay: KiNativ kinase panel; assay type: cell-based; conditions: 1 μM; MCF-7 Cells; Lys2; DIKAANVLLSEHGEVK
T2 construct: purchased ActivX Biosciences (KiNativ)

MAP2K1, MAP2K2 = assay: KiNativ kinase panel; assay type: cell-based, human; conditions: 1 μM, MCF-7 Cells
MARK4 = molecular target: T3, MARK4 (Homo sapiens, UniProt Q96L34); assay: KiNativ kinase panel; assay type: cell-based; conditions: 1 μM, MCF-7 Cells
T3 construct: purchased ActivX Biosciences (KiNativ)
T3 sequence (Q96L34 1-752): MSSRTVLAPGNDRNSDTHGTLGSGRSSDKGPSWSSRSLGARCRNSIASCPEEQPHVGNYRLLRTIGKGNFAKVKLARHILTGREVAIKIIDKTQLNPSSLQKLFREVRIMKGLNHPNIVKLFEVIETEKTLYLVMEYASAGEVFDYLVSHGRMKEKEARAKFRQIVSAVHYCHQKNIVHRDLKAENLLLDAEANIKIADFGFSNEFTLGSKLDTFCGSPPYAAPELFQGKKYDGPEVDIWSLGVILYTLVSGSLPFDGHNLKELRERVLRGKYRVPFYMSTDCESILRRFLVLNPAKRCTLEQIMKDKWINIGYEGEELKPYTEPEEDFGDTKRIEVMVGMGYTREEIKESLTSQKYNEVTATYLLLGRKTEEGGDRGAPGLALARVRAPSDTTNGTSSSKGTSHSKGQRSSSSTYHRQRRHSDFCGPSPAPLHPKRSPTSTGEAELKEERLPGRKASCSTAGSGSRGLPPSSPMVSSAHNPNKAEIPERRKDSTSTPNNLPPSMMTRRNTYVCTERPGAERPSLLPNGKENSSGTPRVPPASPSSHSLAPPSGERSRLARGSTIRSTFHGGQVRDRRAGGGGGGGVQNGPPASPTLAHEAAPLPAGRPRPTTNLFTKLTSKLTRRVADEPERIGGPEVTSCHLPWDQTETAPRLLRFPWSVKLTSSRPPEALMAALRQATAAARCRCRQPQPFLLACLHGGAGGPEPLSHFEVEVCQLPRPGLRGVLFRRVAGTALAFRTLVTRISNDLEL

JNK1, JNK2, JNK3 = assay: KiNativ kinase panel; assay type: cell-based, human; conditions: 1 μM, MCF-7 Cells, Lys2
MAST1, MAST2 = assay: KiNativ kinase panel; assay type: cell-based, human; conditions: 1 μM, MCF-7 Cells, Lys2
hERG ion channel = hERG ion channel (Homo sapiens, UniProt Q12809); assay: in vitro hERG inhibition; conditions: for inhibition of the hERG ion channel: 10 µM
[1] = system: MCF-7 (PIK3CA^E545K) cell line-derived xenograft; assay: 28-day study in the MCF-7 CDX model; conditions: for tumor volume: MCF-7 CDX, once weekly ip, 28-day study, most significant at 3 or 10 mg/kg; for tolerability (body weight): up to 10 mg/kg ip once weekly
Method: Formulation containing transcutol/solutol HS15/H 2O (5/5/90, %w/w/v) was used, with a dose volume at 5 mL/kg.
Methods for xenograft studies.
MCF-7 xenograft studies. Female Balb/c nude mice (Shanghai Lingchang Biotechnology), 6–8 weeks of age, were inoculated subcutaneously in the right flank with MCF-7 (ECACC-
Three days prior to inoculation, mice were fed with drinking water containing β-estradiol (40 μg/mL). When mean tumor volume reached between 200–400 mm 3, mice were randomized into treatment groups (n = 12/group) for efficacy study, and tumor volume was measured twice weekly by caliper measurements for the duration of the study.
compounds were administered by ip injections at indicated doses, once weekly.

ITPK1 = molecular target: T4, ITPK1 (Homo sapiens, UniProt Q13572); assay: KiNativ kinase panel; assay type: cell-based; conditions: 1 μM, MCF-7 Cells, ATP
T4 construct: endogenous in cells; host or cells: MCF7
T4 sequence (Q13572 1-414): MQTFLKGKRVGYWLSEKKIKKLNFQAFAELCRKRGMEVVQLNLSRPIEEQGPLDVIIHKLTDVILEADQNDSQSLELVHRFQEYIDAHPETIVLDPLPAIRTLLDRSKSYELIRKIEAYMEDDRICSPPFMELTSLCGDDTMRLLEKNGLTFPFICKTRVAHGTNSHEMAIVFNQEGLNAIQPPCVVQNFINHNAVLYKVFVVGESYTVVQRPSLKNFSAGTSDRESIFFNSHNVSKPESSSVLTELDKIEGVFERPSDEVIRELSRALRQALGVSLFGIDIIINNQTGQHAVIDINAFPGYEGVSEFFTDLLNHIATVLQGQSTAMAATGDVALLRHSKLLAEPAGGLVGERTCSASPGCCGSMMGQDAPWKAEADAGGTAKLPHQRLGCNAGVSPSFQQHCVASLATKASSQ

KSR1, KSR2 = assay: KiNativ kinase panel; assay type: cell-based, human; conditions: 1 μM, MCF-7 Cells, Activation Loop
ULK1 = molecular target: T5, ULK1 (Homo sapiens, UniProt O75385); assay: KiNativ kinase panel; assay type: cell-based; conditions: 1 μM; MCF-7 Cells; Lys2; DLKPQNILLSNPAGR
T5 construct: Briefly, MCF7 cells were exposed to; endogenous in cells; host or cells: MCF7

CDK11, CDK8 = assay: KiNativ kinase panel; assay type: cell-based, human; conditions: 1 μM, MCF-7 Cells, Lys2
JAK1_Domain2 domain2 = molecular target: T6, JAK1_Domain2 domain2 (Homo sapiens, UniProt P23458); assay: KiNativ kinase panel; assay type: cell-based; conditions: 1 μM, MCF-7 Cells
T6 construct: endogenous in cells; host or cells: MCF7

MER, TYRO3 = assay: KiNativ kinase panel; assay type: cell-based, human; conditions: 1 μM; MCF-7 Cells; Activation Loop; KIYSGDYYR
p70S6K, p70S6Kb = assay: KiNativ kinase panel; assay type: cell-based, human; conditions: 1 μM, MCF-7 Cells, ATP Loop
AurA, AurB, AurC = assay: KiNativ kinase panel; assay type: cell-based, human; conditions: 1 μM; MCF-7 Cells; ATP Loop; GKFGNVYLAR
MLK3 = molecular target: T7, MLK3 (Homo sapiens, UniProt Q16584); assay: KiNativ kinase panel; assay type: cell-based; conditions: 1 μM; MCF-7 Cells; Lys2; DLKSNNILLLQPIESDDMEHK
T7 construct: purchased ActivX Biosciences (KiNativ)

MST4, YSK1 = assay: KiNativ kinase panel; assay type: cell-based, human; conditions: 1 μM, MCF-7 Cells, Lys2
CDK2 = molecular target: T8, CDK2 (Homo sapiens, UniProt P24941); assay: KiNativ kinase panel; assay type: cell-based; conditions: 1 μM, MCF-7 Cells
T8 construct: purchased ActivX Biosciences (KiNativ)

[2] = Activation Loop, IGDFGLVTSLKNDGKR
[3] = ESIFFNSHNVSKPESSSVLTELDKIEGVFERPSDEVIR
[4] = Activation Loop, IGDFGLTKAIETDKEYYTVK
[5] = Lys1, YDPEGDNTGEQVAVKSLKPESGGNHIADLKK

T6 sequence (P23458 whole entry, the tested form may be a part): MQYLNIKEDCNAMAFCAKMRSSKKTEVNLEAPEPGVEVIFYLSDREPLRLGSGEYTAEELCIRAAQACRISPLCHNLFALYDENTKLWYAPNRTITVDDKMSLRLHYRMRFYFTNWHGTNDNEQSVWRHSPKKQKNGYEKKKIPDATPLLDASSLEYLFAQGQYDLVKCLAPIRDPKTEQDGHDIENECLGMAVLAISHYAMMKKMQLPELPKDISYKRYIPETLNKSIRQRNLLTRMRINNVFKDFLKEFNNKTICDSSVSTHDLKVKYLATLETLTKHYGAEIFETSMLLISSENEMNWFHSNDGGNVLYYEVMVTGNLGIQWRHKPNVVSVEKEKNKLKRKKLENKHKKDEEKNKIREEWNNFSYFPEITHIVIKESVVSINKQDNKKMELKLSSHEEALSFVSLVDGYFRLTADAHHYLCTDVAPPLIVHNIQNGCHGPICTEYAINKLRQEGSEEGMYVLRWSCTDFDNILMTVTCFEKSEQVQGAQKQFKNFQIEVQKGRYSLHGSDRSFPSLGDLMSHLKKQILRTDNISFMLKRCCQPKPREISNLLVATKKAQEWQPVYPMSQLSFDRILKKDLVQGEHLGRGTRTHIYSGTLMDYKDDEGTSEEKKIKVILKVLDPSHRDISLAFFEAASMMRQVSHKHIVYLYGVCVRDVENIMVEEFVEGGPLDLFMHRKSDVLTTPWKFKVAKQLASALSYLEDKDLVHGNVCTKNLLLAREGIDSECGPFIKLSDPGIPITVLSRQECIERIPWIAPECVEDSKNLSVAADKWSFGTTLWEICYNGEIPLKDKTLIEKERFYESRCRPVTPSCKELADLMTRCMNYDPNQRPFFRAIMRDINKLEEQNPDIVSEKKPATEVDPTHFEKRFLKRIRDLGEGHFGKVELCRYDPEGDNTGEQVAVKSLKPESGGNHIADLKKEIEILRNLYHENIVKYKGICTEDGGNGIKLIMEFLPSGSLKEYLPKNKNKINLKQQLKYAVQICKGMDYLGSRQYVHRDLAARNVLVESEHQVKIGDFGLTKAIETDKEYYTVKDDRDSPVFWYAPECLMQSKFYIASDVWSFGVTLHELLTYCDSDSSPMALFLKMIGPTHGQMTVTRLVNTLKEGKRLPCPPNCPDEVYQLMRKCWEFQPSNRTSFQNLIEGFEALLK
T1 sequence (P19525 whole entry): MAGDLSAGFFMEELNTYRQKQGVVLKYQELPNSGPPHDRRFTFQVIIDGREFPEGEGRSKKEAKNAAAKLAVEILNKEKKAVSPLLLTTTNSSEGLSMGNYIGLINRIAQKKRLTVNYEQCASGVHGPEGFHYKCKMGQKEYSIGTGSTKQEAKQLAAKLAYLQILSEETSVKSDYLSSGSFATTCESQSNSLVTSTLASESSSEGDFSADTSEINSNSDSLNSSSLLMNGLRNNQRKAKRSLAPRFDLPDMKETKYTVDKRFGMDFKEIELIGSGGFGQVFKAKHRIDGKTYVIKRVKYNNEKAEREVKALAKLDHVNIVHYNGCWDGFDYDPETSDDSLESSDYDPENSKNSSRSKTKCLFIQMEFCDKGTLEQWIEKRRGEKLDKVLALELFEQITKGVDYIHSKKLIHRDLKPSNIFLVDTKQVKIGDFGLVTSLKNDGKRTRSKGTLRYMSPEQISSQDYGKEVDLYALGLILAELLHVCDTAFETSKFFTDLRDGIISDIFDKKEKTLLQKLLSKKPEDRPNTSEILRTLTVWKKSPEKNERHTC
Chain of hERG ion channel (Q12809 whole entry): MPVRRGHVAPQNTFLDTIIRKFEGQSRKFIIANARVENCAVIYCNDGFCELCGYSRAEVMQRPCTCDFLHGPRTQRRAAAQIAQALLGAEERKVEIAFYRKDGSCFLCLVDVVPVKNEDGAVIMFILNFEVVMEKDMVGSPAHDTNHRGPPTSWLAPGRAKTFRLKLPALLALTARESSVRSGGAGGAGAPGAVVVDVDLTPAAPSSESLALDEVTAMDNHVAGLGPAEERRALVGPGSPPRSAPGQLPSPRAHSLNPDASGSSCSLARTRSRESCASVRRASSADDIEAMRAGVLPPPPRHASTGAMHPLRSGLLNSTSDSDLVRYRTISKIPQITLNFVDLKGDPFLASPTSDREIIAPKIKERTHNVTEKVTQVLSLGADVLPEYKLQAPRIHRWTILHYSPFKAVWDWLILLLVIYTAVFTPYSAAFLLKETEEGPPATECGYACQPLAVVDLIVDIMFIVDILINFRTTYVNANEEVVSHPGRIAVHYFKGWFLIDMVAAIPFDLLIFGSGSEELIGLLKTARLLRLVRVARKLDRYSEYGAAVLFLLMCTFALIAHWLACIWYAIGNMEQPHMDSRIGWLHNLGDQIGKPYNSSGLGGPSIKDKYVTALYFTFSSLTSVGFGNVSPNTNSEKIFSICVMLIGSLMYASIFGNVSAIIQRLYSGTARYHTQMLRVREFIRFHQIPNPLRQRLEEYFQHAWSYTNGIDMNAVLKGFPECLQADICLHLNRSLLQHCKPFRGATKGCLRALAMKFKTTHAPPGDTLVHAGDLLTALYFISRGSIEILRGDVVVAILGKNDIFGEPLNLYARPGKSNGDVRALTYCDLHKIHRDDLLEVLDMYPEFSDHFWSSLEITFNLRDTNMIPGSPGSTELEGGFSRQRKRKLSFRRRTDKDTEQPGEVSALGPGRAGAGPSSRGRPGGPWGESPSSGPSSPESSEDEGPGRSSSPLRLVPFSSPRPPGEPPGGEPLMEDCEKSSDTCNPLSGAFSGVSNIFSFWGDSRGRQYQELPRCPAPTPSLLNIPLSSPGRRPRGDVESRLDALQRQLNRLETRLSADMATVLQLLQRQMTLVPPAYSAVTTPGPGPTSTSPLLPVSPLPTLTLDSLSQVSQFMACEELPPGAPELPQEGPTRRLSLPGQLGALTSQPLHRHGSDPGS
T7 sequence (Q16584 whole entry): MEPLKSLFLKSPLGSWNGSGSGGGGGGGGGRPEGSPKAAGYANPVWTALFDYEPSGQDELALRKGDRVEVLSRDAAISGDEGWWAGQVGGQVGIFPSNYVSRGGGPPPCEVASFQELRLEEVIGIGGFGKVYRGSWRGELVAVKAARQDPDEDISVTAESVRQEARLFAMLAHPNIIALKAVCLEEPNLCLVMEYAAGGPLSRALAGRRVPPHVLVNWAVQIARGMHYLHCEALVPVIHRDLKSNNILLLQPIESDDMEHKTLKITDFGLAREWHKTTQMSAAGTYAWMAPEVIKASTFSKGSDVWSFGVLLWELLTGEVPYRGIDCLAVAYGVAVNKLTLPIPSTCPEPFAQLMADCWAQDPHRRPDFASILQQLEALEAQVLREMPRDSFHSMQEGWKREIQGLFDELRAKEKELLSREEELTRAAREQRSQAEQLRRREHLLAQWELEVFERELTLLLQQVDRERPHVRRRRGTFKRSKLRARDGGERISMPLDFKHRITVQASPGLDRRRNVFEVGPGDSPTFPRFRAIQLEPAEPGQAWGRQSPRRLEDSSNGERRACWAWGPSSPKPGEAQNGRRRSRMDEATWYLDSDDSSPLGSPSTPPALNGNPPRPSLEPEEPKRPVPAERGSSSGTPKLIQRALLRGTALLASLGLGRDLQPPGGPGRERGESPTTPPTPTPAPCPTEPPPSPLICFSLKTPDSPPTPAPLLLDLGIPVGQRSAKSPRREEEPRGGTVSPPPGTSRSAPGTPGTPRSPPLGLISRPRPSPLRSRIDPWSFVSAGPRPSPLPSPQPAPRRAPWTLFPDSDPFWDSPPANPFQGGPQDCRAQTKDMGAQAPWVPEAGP
T5 sequence (O75385 whole entry): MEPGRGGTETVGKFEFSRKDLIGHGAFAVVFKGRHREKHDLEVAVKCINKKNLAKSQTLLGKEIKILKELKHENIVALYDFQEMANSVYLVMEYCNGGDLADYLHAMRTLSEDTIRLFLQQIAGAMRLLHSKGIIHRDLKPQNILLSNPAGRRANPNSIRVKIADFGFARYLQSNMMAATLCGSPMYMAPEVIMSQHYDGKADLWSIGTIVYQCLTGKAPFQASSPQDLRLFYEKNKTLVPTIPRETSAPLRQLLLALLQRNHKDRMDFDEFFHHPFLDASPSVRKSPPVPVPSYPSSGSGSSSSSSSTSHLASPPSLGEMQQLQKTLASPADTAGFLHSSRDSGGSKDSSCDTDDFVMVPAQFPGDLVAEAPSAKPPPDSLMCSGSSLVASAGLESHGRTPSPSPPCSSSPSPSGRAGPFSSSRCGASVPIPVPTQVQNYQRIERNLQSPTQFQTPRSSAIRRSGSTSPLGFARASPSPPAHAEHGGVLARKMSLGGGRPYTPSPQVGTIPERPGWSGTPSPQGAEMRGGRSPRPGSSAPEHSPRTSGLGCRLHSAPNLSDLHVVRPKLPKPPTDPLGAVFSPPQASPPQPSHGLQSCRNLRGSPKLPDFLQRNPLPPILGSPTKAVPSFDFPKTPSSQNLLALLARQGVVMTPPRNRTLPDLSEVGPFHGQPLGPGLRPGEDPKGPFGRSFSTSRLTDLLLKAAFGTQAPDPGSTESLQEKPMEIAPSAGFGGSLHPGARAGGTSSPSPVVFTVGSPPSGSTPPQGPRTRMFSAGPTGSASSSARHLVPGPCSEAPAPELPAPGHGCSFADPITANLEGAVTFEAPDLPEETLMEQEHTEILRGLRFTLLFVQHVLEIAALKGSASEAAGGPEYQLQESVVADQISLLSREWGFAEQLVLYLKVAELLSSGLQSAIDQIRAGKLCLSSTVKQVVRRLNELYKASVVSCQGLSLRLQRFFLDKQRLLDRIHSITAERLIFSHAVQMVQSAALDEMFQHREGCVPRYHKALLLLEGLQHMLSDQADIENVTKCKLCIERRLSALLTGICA

Row | SMILES | KiNativ Kinase Panel Data (PKR; [2]) | KiNativ Kinase Panel Data (PKR; Lys1, TYVIKR) | KiNativ Kinase Panel Data (PKR; Lys2, DLKPSNIFLVDTK) | KiNativ Kinase Panel Data (MST3) | KiNativ Kinase Panel Data (MAP2K1, MAP2K2; Lys1, KLIHLEIKPAIR) | KiNativ Kinase Panel Data (MARK4; Lys2, DLKAENLLLDAEANIK) | in vitro hERG inhibition (10 μM) (hERG ion channel) | inhibition of the hERG ion channel (hERG ion channel) | tumor volume [1] | tolerability (body weight) [1] | KiNativ Kinase Panel Data (ITPK1; [3]) | KiNativ Kinase Panel Data (ULK1) | KiNativ Kinase Panel Data (JAK1_Domain2 domain2; [4]) | KiNativ Kinase Panel Data (JAK1_Domain2 domain2; [5]) | KiNativ Kinase Panel Data (MER, TYRO3) | KiNativ Kinase Panel Data (AurA, AurB, AurC) | KiNativ Kinase Panel Data (MLK3) | KiNativ Kinase Panel Data (CDK2; Lys1, LTGEVVALKK) | KiNativ Kinase Panel Data (CDK2; Lys2, DLKPQNLLINTEGAIK) | also measured
1 | CO[C@H]1C[C@@H]2CC[C@@H](C)[C@@](O)(O2)C(=O)C(=O)N2CCCC[C@H]2C(=O)O[C@H]([C@H](C)C[C@@H]2CC[C@@H](OC(=O)NCCOCCOCCOCCOCCOCCOCCOCCOCCC(=O)N3CCc4cc(Cn5nc(-c6ccc7oc(N)nc7c6)c6c(N)ncnc65)ccc4C3)[C@H](OC)C2)C[C@@H](O)[C@H](C)/C=C(\C)[C@@H](O)[C@@H](OC)C(=O)[C@H](C)C[C@H](C)/C=C/C=C/C=C/1C [compound 38] | 12.1 | 15.2 | 11.0 | 22.2 | 14.8 | 20.6 | 16% | low | reduction in tumor volume | acceptable tolerability profile | 6.5 | -11.7 | 31.3 | 26.2 | -0.7 | 34.8 | 2.0 | 1.0 | 13.1 | KiNativ Kinase Panel Data (MAP2K1, MAP2K2; Lys2, […]): 7.6; KiNativ Kinase Panel Data (MARK4; Lys1, […]): 7.0; KiNativ Kinase Panel Data (JNK1, JNK2, JNK3; […]): 13.8; KiNativ Kinase Panel Data (MAST1, MAST2; […]): 19.6; KiNativ Kinase Panel Data (ITPK1; […]): 22.4; KiNativ Kinase Panel Data (KSR1, KSR2; […]): -19.2; KiNativ Kinase Panel Data (CDK11, CDK8; […]): -39.0; KiNativ Kinase Panel Data (p70S6K, p70S6Kb; […]): 20.1; KiNativ Kinase Panel Data (MST4, YSK1; […]): 10.5
2 | CO[C@H]1C[C@@H]2CC[C@@H](C)[C@@](O)(O2)C(=O)C(=O)N2CCCC[C@H]2C(=O)O[C@H]([C@H](C)C[C@@H]2CC[C@@H](OC(=O)NCCOCCOCCOCCOCCOCCOCCOCCOCCC(=O)NCCS(=O)(=O)c3ccc(C(=O)N4CCOc5ccc(-c6ccc(N)nc6)cc5C4)c(C)c3F)[C@H](OC)C2)C[C@@H](O)[C@H](C)/C=C(\C)[C@@H](O)[C@@H](OC)C(=O)[C@H](C)C[C@H](C)/C=C/C=C/C=C/1C [compound 40] | 17.4 | 9.6 | -32.5 | 11.0 | -34.9 | 22.2 | 6% | low | reduction in tumor volume | acceptable tolerability profile | -9.6 | -15.4 | 19.5 | 13.3 | 7.1 | -3.6 | -12.3 | -29.1 | -40.9 | KiNativ Kinase Panel Data (MAP2K1, MAP2K2; Lys2, DVKPSNILVNSR): -22.1; KiNativ Kinase Panel Data (MARK4; Lys1, EVAIKIIDKTQLNPSSLQK): 24.2; KiNativ Kinase Panel Data (JNK1, JNK2, JNK3; DLKPSNIVVK): -9.5; KiNativ Kinase Panel Data (MAST1, MAST2; DLKPDNLLITSMGHIK): 22.5; KiNativ Kinase Panel Data (ITPK1; NFSAGTSDRESIFFNSHNVSKPESSSVLTELDKIEGVFERPSDEVIR): -12.4; KiNativ Kinase Panel Data (KSR1, KSR2; SKNVFYDNGK): -20.7; KiNativ Kinase Panel Data (CDK11, CDK8; DLKPANILVMGEGPER): -19.1; KiNativ Kinase Panel Data (p70S6K, p70S6Kb; GGYGKVFQVR): -4.7; KiNativ Kinase Panel Data (MST4, YSK1; DIKAANVLLSEQGDVK): -10.1
